Assays:
Human alpha-thrombin = Human alpha-thrombin (Homo sapiens (Human), UniProt P00734); test: Thrombin counterscreen for selectivity, fluorogenic substrate cleavage; format: biochemical; conditions: 10 min pre-incubation, Boc-Val-Pro-Arg-AMC 20 μM
Procedure: Counterscreens for Selectivity:
Thrombin. In a 96-well white opaque plate, 80 μl of assay buffer was added to each well. Test compounds were added, and serially diluted as above, to generate a concentration range of approximately 1-100 μM. Human alpha-thrombin (Enzyme Research Labs) was diluted in assay buffer to a final concentration of 12.5 nM. 80 μl of this enzyme solution was added to the assay wells. The enzyme/compound mixtures were incubated for 10 minutes at room temperature. Fluorogenic substrate (Boc-Val-Pro-Arg-7-amido-4-methylcoumarin; Sigma) was added to assay wells at a final concentration of 20 μM. The assay plate was spun for 1 minute at 1500 g and then read at 37° C. in a SpectraMax M2 plate reader (λex=380 nm and λem=460 nm). Activity was quantified as the rate of change in fluorescence, which corresponds to the rate of substrate cleavage. IC50 values were determined as the concentration of inhibitor that produced 50% of the rate of change of control wells without any inhibitor. For compounds with activity <1 μM, the assay was repeated with a lower concentration range, typically from 10-1000 nM.

Human FXIIa = Human FXIIa (Homo sapiens (Human), UniProt P00748); test: Factor XIIa (FXIIa) inhibitory activity, chromogenic substrate (Pefachrome XIIa) cleavage; format: biochemical; conditions: 10 min pre-incubation, Pefachrome XIIa 400 μM
Chain of Human FXIIa (P00748 373-615): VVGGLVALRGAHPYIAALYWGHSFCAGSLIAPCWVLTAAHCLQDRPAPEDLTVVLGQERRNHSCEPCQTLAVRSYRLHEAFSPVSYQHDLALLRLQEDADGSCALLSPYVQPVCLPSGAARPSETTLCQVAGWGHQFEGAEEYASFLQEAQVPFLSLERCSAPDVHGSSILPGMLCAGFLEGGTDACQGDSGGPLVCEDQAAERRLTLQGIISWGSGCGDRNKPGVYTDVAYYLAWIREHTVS
Chain of Human FXIIa (P00748 20-372 partner): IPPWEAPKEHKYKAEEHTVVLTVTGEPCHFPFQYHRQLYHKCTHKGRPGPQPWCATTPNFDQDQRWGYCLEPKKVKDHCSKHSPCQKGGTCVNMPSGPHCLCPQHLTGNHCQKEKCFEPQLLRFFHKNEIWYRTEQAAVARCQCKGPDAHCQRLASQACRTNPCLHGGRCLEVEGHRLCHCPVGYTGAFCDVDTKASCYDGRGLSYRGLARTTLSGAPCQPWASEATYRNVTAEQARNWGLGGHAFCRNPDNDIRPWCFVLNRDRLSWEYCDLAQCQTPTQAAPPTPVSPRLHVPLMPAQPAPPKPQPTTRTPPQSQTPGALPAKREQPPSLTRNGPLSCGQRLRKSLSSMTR

Row | IC50 (Human alpha-thrombin) [µM] | IC50 (Human FXIIa) [µM] | SMILES
1 | > 65 | 60 | Nc1nn(C(=O)C2CCNc3ccccc32)c2c1CCN(C(=O)c1ccccc1)C2 (centres unmarked) [Example 110, (3-amino-1-(1,2,3,4-tetrahydro-quinoline-4-carbonyl)-4,5-dihydro-1H-pyrazolo[3,4-c]pyridin-6(7H)-yl)(phenyl)-methanone]
2 | 30 | 0.35 | CS(=O)(=O)N1CCc2c(nn(C(=O)C3CCNc4ccccc43)c2N)C1 (centres unmarked) [Example 103, (3-amino-6-(methylsulfonyl)-4,5,6,7-tetrahydro-pyrazolo[3,4-c]pyridin-2-yl)(1,2,3,4-tetrahydro-quinolin-4-yl)methanone]
3 | 9 | 0.01 | Cc1cc(F)cc2c1NCCC2C(=O)n1nc2c(c1N)CCN(S(C)(=O)=O)C2 (single isomer, unassigned) [Example 53, (S*)-(3-amino-6-(methylsulfonyl)-4,5,6,7-tetrahydropyrazolo[3,4-c]pyridin-2-yl)(6-fluoro-8-methyl-1,2,3,4-tetrahydroquinolin-4-yl)methanone]
4 | 45 | 0.15 | CC1(C)CC(C(=O)n2nc3c(c2N)CCN(S(C)(=O)=O)C3)c2ccccc2N1 (centres unmarked) [Example 39, (3-amino-6-(methylsulfonyl)-4,5,6,7-tetrahydropyrazolo[3,4-c]pyridin-2-yl)(2,2-dimethyl-1,2,3,4-tetrahydroquinolin-4-yl)methanone]
5 | > 80 | 0.8 | CNC(=O)N1CCc2nn(C(=O)C3CCNc4ccccc43)c(N)c2C1 (centres unmarked) [Example 89, 3-amino-N-methyl-2-(1,2,3,4-tetrahydro-quinoline-4-carbonyl)-6,7-dihydro-2H-pyrazolo[4,3-c]pyridine-5(4H)-carboxamide]
6 | 45 | 2.2 | CC(C)c1ccc2c(c1)C(C(=O)n1nc3c(c1N)CCN(S(C)(=O)=O)C3)CCN2 (centres unmarked) [Example 45, (3-amino-6-(methylsulfonyl)-4,5,6,7-tetrahydropyrazolo[3,4-c]pyridin-2-yl)(6-isopropyl-1,2,3,4-tetrahydroquinolin-4-yl)methanone]
7 | > 35 | 0.16 | Nc1c2c(nn1C(=O)C1CCNc3ccc(F)cc31)CN(c1ccccc1)CC2 (centres unmarked) [Example 28, (3-amino-6-phenyl-4,5,6,7-tetrahydropyrazolo[3,4-c]pyridin-2-yl)(6-fluoro-1,2,3,4-tetrahydroquinolin-4-yl)methanone]
8 | 17 | 1 | Nc1c2c(nn1C(=O)C1CCNc3ccccc31)CN(C(=O)OCc1ccccc1)CC2 (centres unmarked) [Example 116, benzyl 3-amino-2-(1,2,3,4-tetrahydro-quinoline-4-carbonyl)-4,5-dihydro-2H-pyrazolo[3,4-c]pyridine-6(7H)-carboxylate]
9 | > 150 | 80 | CC(=O)N1CCc2c(N)nn(C(=O)C3CCNc4ccccc43)c2C1 (centres unmarked) [Example 108, 1-(3-amino-1-(1,2,3,4-tetrahydro-quinoline-4-carbonyl)-4,5-dihydro-1H-pyrazolo[3,4-c]pyridin-6(7H)-yl)ethanone]
10 | > 25 | 0.3 | CCc1cc2c([nH]1)CCCC2C(=O)n1nc2c(c1N)CN(C(=O)OCc1ccccc1)CC2 (centres unmarked) [Example 4, Benzyl 3-amino-2-(2-ethyl-4,5,6,7-tetrahydro-1H-indole-4-carbonyl)-6,7-dihydro-2H-pyrazolo[4,3-c]pyridine-5(4H)-carboxylate]
11 | > 55 | 0.08 | CC(C)S(=O)(=O)N1CCc2c(nn(C(=O)C3CCNc4ccc(F)cc43)c2N)C1 (centres unmarked) [Example 136, (3-amino-6-(isopropyl-sulfonyl)-4,5,6,7-tetrahydro-pyrazolo[3,4-c]pyridin-2-yl)(6-fluoro-1,2,3,4-tetrahydro-quinolin-4-yl)methanone]
12 | 15 | 0.7 | Nc1c2c(nn1C(=O)C1CCNc3ccc(F)cc31)CN(S(=O)(=O)c1cccnc1)CC2 (centres unmarked) [Example 157, (3-amino-6-(pyridin-3-ylsulfonyl)-4,5,6,7-tetrahydro-pyrazolo[3,4-c]pyridin-2-yl)(6-fluoro-1,2,3,4-tetrahydro-quinolin-4-yl)methanone]
13 | > 40 | 0.15 | CCN1CCc2c(nn(C(=O)C3CCNc4ccccc43)c2N)C1 (centres unmarked) [Example 20, (3-amino-6-ethyl-4,5,6,7-tetrahydropyrazolo[3,4-c]pyridin-2-yl)(1,2,3,4-tetrahydroquinolin-4-yl)methanone]
14 | 20 | 0.1 | COc1cccc2c1NCCC2C(=O)n1nc2c(c1N)CCN(S(C)(=O)=O)C2 (centres unmarked) [Example 61, (3-amino-6-(methylsulfonyl)-4,5,6,7-tetrahydropyrazolo[3,4-c]pyridin-2-yl)(8-methoxy-1,2,3,4-tetrahydroquinolin-4-yl)methanone]
15 | > 85 | 80 | CS(=O)(=O)N1CCc2c(N)nn(C(=O)C3CCNc4ccccc43)c2C1 (centres unmarked) [Example 104, (3-amino-6-(methylsulfonyl)-4,5,6,7-tetrahydro-pyrazolo[3,4-c]pyridin-1-yl)(1,2,3,4-tetrahydro-quinolin-4-yl)methanone]
16 | > 100 | 0.6 | Nc1c2c(nn1C(=O)C1CCNc3ccccc31)CNCC2 (centres unmarked) [Example 118, (3-amino-4,5,6,7-tetrahydro-pyrazolo[3,4-c]pyridin-2-yl)(1,2,3,4-tetrahydro-quinolin-4-yl)methanone]
17 | > 50 | 0.25 | CCc1cc2c([nH]1)CCCC2C(=O)n1nc2c(c1N)CNCC2 (centres unmarked) [Example 6, (3-amino-4,5,6,7-tetrahydropyrazolo[4,3-c]pyridin-2-yl)(2-ethyl-4,5,6,7-tetrahydro-1H-indol-4-yl)methanone]
18 | > 80 | 8.5 | CN1CCc2nn(C(=O)C3CCCc4[nH]ccc43)c(N)c2C1 (centres unmarked) [Example 97, (3-amino-5-methyl-4,5,6,7-tetrahydro-pyrazolo[4,3-c]pyridin-2-yl)(4,5,6,7-tetrahydro-1H-indol-4-yl)methanone]
19 | 60 | 0.13 | Nc1c2c(nn1C(=O)C1CCNc3ccc(F)cc31)CN(S(=O)(=O)CF)CC2 (centres unmarked) [Example 140, (3-amino-6-(fluoromethyl-sulfonyl)-4,5,6,7-tetrahydro-pyrazolo[3,4-c]pyridin-2-yl)(6-fluoro-1,2,3,4-tetrahydro-quinolin-4-yl)methanone]
20 | 25 | 0.1 | CS(=O)(=O)N1CCc2c(nn(C(=O)C3CCNc4c(F)cccc43)c2N)C1 (centres unmarked) [Example 37, (3-amino-6-(methylsulfonyl)-4,5,6,7-tetrahydropyrazolo[3,4-c]pyridin-2-yl)(8-fluoro-1,2,3,4-tetrahydroquinolin-4-yl)methanone]
21 | 12 | 1.5 | CNC(=O)N1CCc2c(c(N)nn2C(=O)C2CCNc3ccccc32)C1 (centres unmarked) [Example 90, 3-amino-N-methyl-1-(1,2,3,4-tetrahydro-quinoline-4-carbonyl)-6,7-dihydro-1H-pyrazolo[4,3-c]pyridine-5(4H)-carboxamide]
22 | 5 | 45 | Nc1nn(C(=O)C2CCNc3ccccc32)c2c1CCN(C(=O)OCc1ccccc1)C2 (centres unmarked) [Example 117, benzyl 3-amino-1-(1,2,3,4-tetrahydro-quinoline-4-carbonyl)-4,5-dihydro-1H-pyrazolo[3,4-c]pyridine-6(7H)-carboxylate]
23 | 70 | 0.13 | Nc1c2c(nn1C(=O)C1CCNc3ccc(F)cc31)CN(S(=O)(=O)C(F)F)CC2 (centres unmarked) [Example 159, (3-amino-6-(difluoromethyl-sulfonyl)-4,5,6,7-tetrahydro-pyrazolo[3,4-c]pyridin-2-yl)(6-fluoro-1,2,3,4-tetrahydro-quinolin-4-yl)methanone]
24 | > 60 | 0.03 | CS(=O)(=O)N1CCc2c(nn(C(=O)C3CCNc4c(Cl)cccc43)c2N)C1 (single isomer, unassigned) [Example 60, (S*)-(3-amino-6-(methylsulfonyl)-4,5,6,7-tetrahydropyrazolo[3,4-c]pyridin-2-yl)(8-chloro-1,2,3,4-tetrahydroquinolin-4-yl)methanone]
25 | 12.5 | 0.03 | CS(=O)(=O)N1CCc2c(nn(C(=O)C3CCNc4ccc(F)cc43)c2N)C1 (single isomer, unassigned) [Example 18, (S*)-(3-amino-6-(methylsulfonyl)-4,5,6,7-tetrahydropyrazolo[3,4-c]pyridin-2-yl)(6-fluoro-1,2,3,4-tetrahydroquinolin-4-yl)methanone]
26 | 20 | 0.04 | CS(=O)(=O)N1CCc2c(nn(C(=O)C3CCNc4ccc(Cl)cc43)c2N)C1 (centres unmarked) [Example 14, (3-amino-6-(methylsulfonyl)-4,5,6,7-tetrahydropyrazolo[3,4-c]pyridin-2-yl)(6-chloro-1,2,3,4-tetrahydroquinolin-4-yl)methanone]
27 | > 70 | 1.5 | CS(=O)(=O)N1CCc2nn(C(=O)C3CCNc4ccccc43)c(N)c2C1 (centres unmarked) [Example 91, (3-amino-5-(methylsulfonyl)-4,5,6,7-tetrahydro-pyrazolo[4,3-c]pyridin-2-yl)(1,2,3,4-tetrahydro-quinolin-4-yl)methanone]
28 | 20 | 0.05 | CCN1CCc2c(nn(C(=O)C3CCNc4ccc(Cl)cc43)c2N)C1 (centres unmarked) [Example 161, (3-amino-6-ethyl-4,5,6,7-tetrahydro-pyrazolo[3,4-c]pyridin-2-yl)(6-chloro-1,2,3,4-tetrahydro-quinolin-4-yl)methanone]
